The subject of one data set is E. coli K-12 BW25113. The data set can be described thus: microbe, parasite or virus in culture. The class given is cell-based, Escherichia coli. Particulars: for MIC: starting wild-type strain of the evolution experiment, broth dilution, MS medium, 5 × 10^5 cells/mL, 30 °C, 24 h, MIC = OD600 < 0.05; for MIC in 30 °C / MIC in 37 °C: strain not given.
For data set [1], the system named is E. coli K-12 BW25113 carrying ASKA plasmids. The data set can be described thus: microbe, parasite or virus in culture. The class given is cell-based, Escherichia coli. To be noted: for MIC fold change: MIC of ASKA pooled library / MIC of E.coli carrying empty ASKA plasmid; for MIC value of E. coli K-12 BW25113 carrying the empty plasmid of the ASKA library / MIC value of E. coli K-12 BW25113 carrying the pooled plasmids of the ASKA library: MS medium + 10 µg mL−1 CHL + 500 µM IPTG, 5 × 10^5 cells, 16–18 h, 37 °C; for Average fold change of the 3 replicates (MIC pooled ASKA library / MIC empty plasmid): mean of three biological replicates. In short, it runs like this: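 E. coli BW25113 transformed with the pooled ASKA ORF overexpression library, or empty-vector control, grown with CHL, induced with IPTG.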

Another data set has as its system S. enterica LT2. The class given is cell-based, Salmonella enterica subsp. enterica serovar Typhimurium. To be noted: broth dilution, 37 °C, 18 h. The protocol:
Unless otherwise indicated, we used E. coli K-12 BW25113 in all high-throughput experiments. To investigate the impact of mutation rate on evolution of AMP resistance, we initiated laboratory evolution with a mutator strain E. coli mutD5 that carries mutations in the dnaQ gene (L73W and A164V).
MICs were determined using a standard serial broth dilution technique. Briefly, 11-step serial dilutions were prepared in 96-well microtiter plates with three replicates per strain and antimicrobial compound. Each experiment was repeated at least twice. 5 × 10^5 cells/mL were inoculated into each well, and the plates were incubated at 30 °C in case of E. coli K-12 BW25113, and its antibiotic and AMP-adapted lines, or 37 °C in case of the other bacterial species. Plates were shaken at 300 r.p.m. during incubation for 24 and 18 h, respectively. Cell growth was monitored by measuring the optical density (OD600 value, Biotek Synergy 2 microplate reader was used for this purpose). […] Relative MIC was calculated as follows: MICrelative = MICevolved/MICcontrol.
On the technique in general: In broth dilution the organism is exposed to a series of concentrations in liquid medium.

In another data set the test system is Human red blood cells. The experiment in a line: Hemolysis assay. The class given is cell-based. Particulars: for ATI (activity/toxicity index), ratio MHC / MM: MHC on human red blood cells / median of MICs in E. coli K12. As to the method:
Human red blood cells (hemoglobin concentration (Hb) 150–160 g L^−1) were collected from apparently healthy patients in EDTA tubes. 600 µL of EDTA-blood were washed in TBS buffer (10 mM TRIS, 150 mM NaCl) and centrifuged at 1500 × g for 1 min until the supernatant became colorless. The final pellet was diluted to 5 mL with TBS buffer. Hundred microliters of this cell suspension was pipetted into sterile Eppendorf tubes together with twofold serial dilutions of each compound to a final volume of 200 μl. Final concentrations ranged between 2500 µg mL^−1–9.75 µg mL^−1. Following incubation for one hour at 37 °C, samples were centrifuged at 1500 g for 1 min to precipitate the red blood cells. All supernatants were transferred to sterile 96-well plates for the measurement of their direct optical density (OD) at 565 nm wavelength (Multiskan FC microplate reader, Thermo Scientific). Melittin (Bachem) at concentration of 50 µg.mL^−1 and TBS were used as positive (100% hemolysis) and negative (no hemolysis) controls, respectively. Haemolytic effect of each peptide at each concentration was calculated as follows: Hemolysis effect = (Compound OD565nm − TBS OD565nm) × 100/(Melitin OD565nm − TBS OD565nm).

The mark [2] stands for this setting: replicate 1 (first line per drug).
[3] abbreviates: replicate 2 (second line per drug).
Setting [4] is: replicate 3 (third line per drug).

Where two headings read alike, the source gives them in different places. Ends that are not written are not given here. Peptide text beside a SMILES is read from it.

Turning to `NC[C@H]1O[C@H](O[C@H]2[C@H](O)[C@@H](O[C@H]3O[C@H](CO)[C@@H](O)[C@H](N)[C@H]3O)[C@H](N)C[C@@H]2N)[C@H](O)[C@@H](O)[C@@H]1O` [KAN, Kanamycin], the MIC in the data set with E. coli K-12 BW25113 came out at 8 µg/mL. Moreover, the MIC fold change in data set [1] (setting [2]) was determined as 1.3; in data set [1] (setting [3]), 1.3; in data set [1] (setting [4]), 1.69. Also, the “MIC value of E. coli K-12 BW25113 carrying the empty plasmid of the ASKA library” value in data set [1] (Replicate 1) turned out to be 9.65 µg/mL; in data set [1] (Replicate 2), 7.43 µg/mL; in data set [1] (Replicate 3), 7.43 µg/mL. Further, the “MIC value of E. coli K-12 BW25113 carrying the pooled plasmids of the ASKA library” value in data set [1] (Replicate 1) came to 12.55 µg/mL; in data set [1] (Replicate 2), 9.65 µg/mL; in data set [1] (Replicate 3) it was 12.55 µg/mL. The “Average fold change of the 3 replicates (MIC pooled ASKA library / MIC empty plasmid)” value in data set [1] is listed as 1.43.
For the compound `CC[C@H](C)[C@@H]1NC(=O)CNC(=O)[C@H](CCCNC(=N)N)NC(=O)[C@H](Cc2ccc(O)cc2)NC(=O)[C@@H]2CSSC[C@H](NC1=O)C(=O)N[C@@H](Cc1ccc(O)cc1)C(=O)N[C@@H](CCCNC(=N)N)C(=O)N[C@@H](CCCCN)C(=O)N[C@H](C(=O)N[C@@H](CCCNC(=N)N)C(N)=O)CSSC[C@H](NC(=O)[C@H](Cc1c[nH]c3ccccc13)NC(=O)[C@@H](N)CCCNC(=N)N)C(=O)N[C@@H](Cc1ccccc1)C(=O)N[C@@H](CCCNC(=N)N)C(=O)N[C@@H](C(C)C)C(=O)N2` [TPII, tachyplesin II] (HELM PEPTIDE1{R.W.C.F.R.V.C.Y.R.G.I.C.Y.R.K.C.R.[am]}$PEPTIDE1,PEPTIDE1,3:R3-16:R3|PEPTIDE1,PEPTIDE1,7:R3-12:R3$$$V2.0; N-terminus and C-terminus assumed; bridges inferred), the “MIC in 30 °C” value with E. coli K-12 BW25113 (incubation time 24 hour) is listed as 5 µg/mL; in the data set on E. coli K-12 BW25113 (incubation time 48 hour), 5 µg/mL; in the data set with E. coli K-12 BW25113 (incubation time 72 hour), 6 µg/mL. The “MIC in 37 °C” value with E. coli K-12 BW25113 (incubation time 24 hour) is on record as 5 µg/mL; in the data set on E. coli K-12 BW25113 (incubation time 48 hour), 6 µg/mL; in the data set with E. coli K-12 BW25113 (incubation time 72 hour) it was 6 µg/mL. In addition, the MIC in the data set with S. enterica LT2 (starting strain, MS medium) turned out to be 4 µg/mL. Besides, the MIC fold change in data set [1] (setting [2]), in data set [1] (setting [3]) and in data set [1] (setting [4]) was 1 throughout. Moreover, the “Average fold change of the 3 replicates (MIC pooled ASKA library / MIC empty plasmid)” value in data set [1] is listed as 1.00. In the data set with Human red blood cells, the “ATI (activity/toxicity index), ratio MHC / MM” value came out at 155.22.
Turning to “SWLSKTAKKLENSAKKRISEGIAIAIQGGPR [CP1, Cecropin P1]”, the “MM (median of MICs)” value in the data set on E. coli K-12 BW25113 (median of MICs in E. coli K12) is 2.95 µg/mL. Besides, the MIC with E. coli K-12 BW25113 was 100 µg/mL; with S. enterica LT2 (Salmonella enterica subsp. enterica serovar Typhimurium LT2), 1.2 to 2.4 µM. Further, the “MIC value of E. coli K-12 BW25113 carrying the empty plasmid of the ASKA library” value in data set [1] (Replicate 1), in data set [1] (Replicate 2) and in data set [1] (Replicate 3) was 2.31 µg/mL throughout. In addition, the “MIC value of E. coli K-12 BW25113 carrying the pooled plasmids of the ASKA library” value in data set [1] (Replicate 1), in data set [1] (Replicate 2) and in data set [1] (Replicate 3) was 2.31 µg/mL throughout. Moreover, the “ATI (activity/toxicity index), ratio MHC / MM” value with Human red blood cells was over 847.45. Moreover, the “MHC (minimum haemolytic concentration, concentration causing 10% haemolysis)” value with Human red blood cells (human red blood cells, 1 h, 37 °C) is over 2500 µg/mL.
